Data on 19 compounds can be found in PubChem BioAssay (NCI).

Some test systems named below: NCI-H23 lung; K-562 leukemia; HT29 colon; MOLT-4 leukemia; SF-295 CNS; SK-MEL-5 melanoma; BT-549 breast; NCI/ADR-RES ovarian; PC-3 prostate; SK-OV-3 ovarian.
Experiment in all cases: NCI anticancer screen, dose series, 48 h

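These data come from cells grown in 96-well plates and exposed to compound for 48 hours at five concentrations. GI50 = concentration required for 50% inhibition of growth. At the TGI there is no net growth.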 A value given as a limit tells only on which side of the number the result lay.

For `O=C1CSC(c2ccc(Cl)cc2)N1c1ccc(-n2c(-c3ccccc3)nc3ccccc3c2=O)cc1` (centres undefined), the TGI in the experiment with NCI-H23 lung, with K-562 leukemia, in the experiment on HT29 colon, with MOLT-4 leukemia, in the experiment on SF-295 CNS and in the experiment on SK-MEL-5 melanoma was over 100 µM each time. For the same compound, the TGI in the experiment with BT-549 breast, in the experiment with NCI/ADR-RES ovarian, in the experiment on PC-3 prostate and in the experiment with SK-OV-3 ovarian was over 100 µM throughout.

Regarding `CN(C)/C=C/c1ccnc2c1C(=O)c1ccccc1C2=O`, the TGI in the experiment with NCI-H23 lung was 7.17 µM; in the experiment on K-562 leukemia it was over 47.1 µM; in the experiment on HT29 colon, 37.9 µM; in the experiment on MOLT-4 leukemia, over 64.1 µM; with SF-295 CNS it was 14.3 µM; with SK-MEL-5 melanoma, 4.22 µM. Moreover, the TGI with BT-549 breast is 14.9 µM; in the experiment on NCI/ADR-RES ovarian, 57.4 µM; in the experiment with PC-3 prostate it was 56.7 µM; in the experiment with SK-OV-3 ovarian, over 100 µM.

For `COC(=O)C1(C(=O)OC)CC2=C(S(=O)(=O)c3ccccc3)C[C@@H](C#N)[C@H]2C1`, the TGI in the experiment with NCI-H23 lung, with K-562 leukemia, in the experiment with HT29 colon, with MOLT-4 leukemia, with SF-295 CNS and with SK-MEL-5 melanoma was over 100 µM each time. Also, the TGI in the experiment on BT-549 breast, in the experiment on NCI/ADR-RES ovarian, with PC-3 prostate and in the experiment with SK-OV-3 ovarian was over 100 µM throughout.

With `N#Cc1c(C#N)c(-c2ccco2)n(/N=C/c2ccco2)c1N`, the TGI in the experiment with NCI-H23 lung, in the experiment with K-562 leukemia, with HT29 colon, with MOLT-4 leukemia, in the experiment with SF-295 CNS and with SK-MEL-5 melanoma was over 100 µM in each case. Moreover, the TGI in the experiment with BT-549 breast, with NCI/ADR-RES ovarian, in the experiment on PC-3 prostate and with SK-OV-3 ovarian was over 100 µM throughout.

On to `COC(=O)[C@H]1ON2O[C@H](OC3CCCC[C@@H]3c3ccccc3)C[C@@H]3CC[C@H]1[C@@]32C` (some centres undefined), for which the TGI in the experiment on NCI-H23 lung, with K-562 leukemia, with HT29 colon, in the experiment with MOLT-4 leukemia, in the experiment on SF-295 CNS and in the experiment on SK-MEL-5 melanoma was over 100 µM throughout. Further, the TGI in the experiment on BT-549 breast, in the experiment on NCI/ADR-RES ovarian, with PC-3 prostate and in the experiment on SK-OV-3 ovarian was over 100 µM in each case.

Turning to `Cc1ccc(-n2cc(-c3ccc(Cl)cc3)c3c(NNC(=S)NCc4ccccc4)ncnc32)cc1`, the TGI in the experiment on NCI-H23 lung was 60.4 µM; with K-562 leukemia it was over 100 µM; in the experiment on HT29 colon it was 50.7 µM; in the experiment with MOLT-4 leukemia, over 100 µM; with SF-295 CNS it was 55.4 µM; in the experiment on SK-MEL-5 melanoma, 19.5 µM. The TGI came out at 83 µM with BT-549 breast, 32.8 µM in the experiment on NCI/ADR-RES ovarian, 23.1 µM with PC-3 prostate and 82 µM with SK-OV-3 ovarian.

Consider `O=C(C(=O)n1ccc2ccccc21)c1c[nH]c2ccccc12`, for which the TGI in the experiment on NCI-H23 lung, with K-562 leukemia, in the experiment with HT29 colon, in the experiment with MOLT-4 leukemia, in the experiment on SF-295 CNS and in the experiment on SK-MEL-5 melanoma was over 10 µM in each case. In addition, the TGI in the experiment with BT-549 breast, in the experiment on NCI/ADR-RES ovarian, with PC-3 prostate and in the experiment on SK-OV-3 ovarian was over 10 µM each time.

Take `O=C(CSCC(=O)N/N=C\c1cc(Br)cc(Br)c1O)N/N=C\c1cc(Br)cc(Br)c1O`: the TGI in the experiment with NCI-H23 lung is over 100 µM; with K-562 leukemia it was 80.1 µM; in the experiment on HT29 colon, over 100 µM; in the experiment with MOLT-4 leukemia it was 74.7 µM; with SF-295 CNS, over 100 µM; in the experiment on SK-MEL-5 melanoma it was 92.2 µM. Moreover, the TGI in the experiment on BT-549 breast, with NCI/ADR-RES ovarian, with PC-3 prostate and in the experiment on SK-OV-3 ovarian was over 100 µM throughout.

As to `COc1cc(C2c3cc4c(c(O)c3C(=O)C3CCC(=O)N32)OCO4)cc(OC)c1OC` (centres undefined), the TGI in the experiment with NCI-H23 lung, in the experiment on K-562 leukemia, in the experiment with HT29 colon, in the experiment on MOLT-4 leukemia, with SF-295 CNS and in the experiment on SK-MEL-5 melanoma was over 100 µM throughout. Moreover, the TGI was 92.5 µM in the experiment on BT-549 breast, over 100 µM with NCI/ADR-RES ovarian, over 100 µM in the experiment on PC-3 prostate and over 100 µM with SK-OV-3 ovarian.

For the compound `Clc1ccc(CCn2ccc3ccccc32)c(Cl)c1`, the TGI with NCI-H23 lung, in the experiment on K-562 leukemia, with HT29 colon, in the experiment with MOLT-4 leukemia, with SF-295 CNS and with SK-MEL-5 melanoma was over 100 µM in each case. Besides, the TGI in the experiment on BT-549 breast, in the experiment with NCI/ADR-RES ovarian, with PC-3 prostate and in the experiment on SK-OV-3 ovarian was over 100 µM throughout.

With `Cc1ccc(-c2cn3c(nc4ccccc43)c(C)n2)cc1`, the TGI in the experiment on NCI-H23 lung is over 100 µM; with K-562 leukemia it was over 100 µM; with HT29 colon, over 100 µM; in the experiment on MOLT-4 leukemia, over 100 µM; with SF-295 CNS, over 100 µM; in the experiment with SK-MEL-5 melanoma, 40.3 µM. Moreover, the TGI is over 89.4 µM in the experiment with BT-549 breast, over 100 µM in the experiment with NCI/ADR-RES ovarian, over 100 µM in the experiment on PC-3 prostate and 41.5 µM in the experiment with SK-OV-3 ovarian.

On to `CCC1(CC)C(=O)N(C(=O)c2ccc(Cl)cc2)N(C(=O)c2ccccc2Cl)C1=O`, for which the TGI is over 100 µM in the experiment on NCI-H23 lung; over 100 µM in the experiment with K-562 leukemia; 22.6 µM in the experiment with HT29 colon; 52.2 µM with MOLT-4 leukemia; over 100 µM with SF-295 CNS; over 100 µM in the experiment on SK-MEL-5 melanoma. Besides, the TGI with BT-549 breast, in the experiment with NCI/ADR-RES ovarian, in the experiment on PC-3 prostate and in the experiment with SK-OV-3 ovarian was over 100 µM throughout.

Consider `Clc1ccc(CCN2CCN(CCCc3ccccc3)CC2)cc1Cl`, for which the TGI is 31.6 µM in the experiment with NCI-H23 lung; over 100 µM in the experiment on K-562 leukemia; 26.9 µM with HT29 colon; over 100 µM in the experiment with MOLT-4 leukemia; 30 µM with SF-295 CNS; 29.9 µM with SK-MEL-5 melanoma. Besides, the TGI stood at 29.4 µM in the experiment on BT-549 breast, 28.5 µM in the experiment on NCI/ADR-RES ovarian, 31.6 µM with PC-3 prostate and 35.1 µM in the experiment with SK-OV-3 ovarian.

For `Nc1cc(N)c2nc(-c3ccccc3)c(Sc3ccc(F)cc3)nc2c1`, the GI50 with NCI-H23 lung was 19 µM; in the experiment on K-562 leukemia, 39.6 µM; in the experiment on HT29 colon, 17.8 µM; in the experiment with MOLT-4 leukemia it was over 100 µM; in the experiment on SF-295 CNS, 13.9 µM; in the experiment with SK-MEL-5 melanoma, 15.6 µM. The GI50 was 22 µM in the experiment with BT-549 breast, 16.6 µM with NCI/ADR-RES ovarian, 29.4 µM in the experiment on PC-3 prostate and 15.7 µM in the experiment on SK-OV-3 ovarian. For the same compound, the TGI in the experiment on NCI-H23 lung is 39.4 µM; in the experiment on K-562 leukemia, over 100 µM; in the experiment on HT29 colon, 45.9 µM; with MOLT-4 leukemia it was over 100 µM; with SF-295 CNS, 29.9 µM; with SK-MEL-5 melanoma it was 33.4 µM. Also, the TGI with BT-549 breast is 44.1 µM; with NCI/ADR-RES ovarian, 34.7 µM; with PC-3 prostate, over 100 µM; in the experiment on SK-OV-3 ovarian it was 31.6 µM.

`O=C1c2ccccc2C(=O)c2c1c1cc(O)ccc1n2Cc1ccc(Cl)cc1Cl`: the TGI is 19.9 µM in the experiment with NCI-H23 lung; over 100 µM with K-562 leukemia; 51 µM in the experiment on HT29 colon; 43.4 µM in the experiment on MOLT-4 leukemia; 20.1 µM with SF-295 CNS; 47.4 µM in the experiment with SK-MEL-5 melanoma. Moreover, the TGI stood at 36.9 µM in the experiment with BT-549 breast, 11.7 µM with NCI/ADR-RES ovarian, 3.97 µM in the experiment on PC-3 prostate and 13.8 µM in the experiment on SK-OV-3 ovarian.

`CC(C)(C)OC(=O)NCCNC(=O)OCc1ccccc1`: the TGI with NCI-H23 lung, in the experiment with K-562 leukemia, with HT29 colon, in the experiment with MOLT-4 leukemia, with SF-295 CNS and in the experiment with SK-MEL-5 melanoma was over 100 µM each time. In addition, the TGI in the experiment on BT-549 breast, in the experiment with NCI/ADR-RES ovarian, in the experiment on PC-3 prostate and in the experiment with SK-OV-3 ovarian was over 100 µM throughout.

As for `CN(C)CCCN1c2ccc3ccccc3c2Sc2cccc(Cl)c21`, the TGI was determined as 35.4 µM with NCI-H23 lung; 3.77 µM with K-562 leukemia; 4.56 µM in the experiment on HT29 colon; 4.75 µM in the experiment on MOLT-4 leukemia; 12.4 µM in the experiment on SF-295 CNS; 9.59 µM in the experiment on SK-MEL-5 melanoma. Further, the TGI stood at 42.7 µM in the experiment with BT-549 breast, 23.4 µM in the experiment with NCI/ADR-RES ovarian, 11.8 µM in the experiment on PC-3 prostate and 26.4 µM in the experiment on SK-OV-3 ovarian.

Turning to `O=C(O)CCCCCNC(=O)CCC(CN(CC(=O)OCc1ccccc1)CC(=O)OCc1ccccc1)N(CC(=O)OCc1ccccc1)CC(=O)OCc1ccccc1` (centres undefined), the TGI in the experiment on NCI-H23 lung amounted to 35 µM; in the experiment with K-562 leukemia, 30.6 µM; in the experiment with HT29 colon, 33.7 µM; with MOLT-4 leukemia, 37.2 µM; in the experiment with SF-295 CNS it was 32.2 µM; in the experiment with SK-MEL-5 melanoma, 32.2 µM. For the same compound, the TGI stood at 33.1 µM in the experiment on BT-549 breast, 43.1 µM in the experiment on NCI/ADR-RES ovarian, 32.4 µM in the experiment with PC-3 prostate and 26.1 µM in the experiment with SK-OV-3 ovarian.

As for `CN(C)CCCn1c2c(c3ccncc3c1=O)C(=O)c1ccccc1-2`, the GI50 is 1.08 µM in the experiment on NCI-H23 lung; 0.573 µM in the experiment with K-562 leukemia; 0.484 µM in the experiment on HT29 colon; 0.324 µM with MOLT-4 leukemia; 1.06 µM with SF-295 CNS; 1.07 µM in the experiment on SK-MEL-5 melanoma. Also, the GI50 in the experiment with BT-549 breast is 2.09 µM; with NCI/ADR-RES ovarian it was 0.803 µM; in the experiment with PC-3 prostate, 1.14 µM; with SK-OV-3 ovarian, 12.1 µM. Besides, the TGI with NCI-H23 lung amounted to 9.63 µM; in the experiment with K-562 leukemia it was 12.3 µM; in the experiment with HT29 colon, 13.1 µM; with SF-295 CNS, 10.3 µM; in the experiment with SK-MEL-5 melanoma it was 2.5 µM; with BT-549 breast, 13.1 µM. Also, the results for the TGI in the experiment with NCI/ADR-RES ovarian, with PC-3 prostate and in the experiment on SK-OV-3 ovarian were 11.6 µM, 9.78 µM and 65 µM, respectively.
